Results on 1 compound are retold here after US9440989B2, “Antifibrinolytic compounds” (PROYECTO DE BIOMEDICINA CIMA, S.L., priority 2012, dated 2016).

In experiment [1] the test system is tail bleeding in wild-type C57B16 mice. In words: Tail bleeding assay, traditional bleeding model. The experiment is classed as in vivo. The conditions noted are these: intraperitoneal 4 mg/mouse, 160 mg/Kg, tail tip removed 30 min after injection, n = 10. On the procedure:
Bleeding time was evaluated in 2 months old wild-type C57B16 (n=10) mice by removing the tail tip. Mice (20-25 g) were anaesthetized with 2.5% isoflurane and maintained at 37° C. on heating pads. The hemostatic efficacy was evaluated in 2 models, traditional bleeding model and hyperfibrinolytic bleeding model.
Traditional bleeding model consisted in intraperitoneal injection of different compounds (4 mg/mouse, 160 mg/Kg) dissolved in 2% carboxymethyl cellulose or vehicle. Thirty minutes after injection, 5 mm of tail tip were removed using a scalpel blade and the tail tip bathed in 1 mL of sterile saline at 37° C. The time to cessation of bleeding was measured up to 30 min. The time of bleeding was defined as the interval between initial transection and the visual cessation of bleeding.

Experiment [2] deals with human blood (whole blood clot lysis, tPA). In words: Thromboelastometry (ROTEM, modified in-tem with tPA): whole blood clot formation and lysis, human blood. The conditions noted are these: Homo sapiens, read-out: EC50LT (effective concentration to delay lysis time by 50%).
Experimental: A modification of in-tem test as described below was used for the examination of antifibrinolytic effects of tested compounds and its interaction with platelets in citrated blood.
In a pre-warmed cuvette and holder 1 μL of Tissue plasminogen activator (tPA) (150,000 U/mL, Actylise), 20 μL of start-tem reagent (CaCl2), 20 μL of in-tem reagent (activators of coagulation system), 3 μL of DMSO (control) or tested compounds (CMs) in DMSO and 300 μL of citrated blood pre-warmed were pipetted. The cup holder containing the sample mixture was placed immediately on the appropriate channel. The measurement was recorded for 60 min to allow clot formation and lysis.

pEC50: −log10 of the molar value. A value given as a limit tells only on which side of the number the result lay.

Turning to `COc1ccc(Oc2ccc(S(=O)(=O)C3(C(=O)NO)CCC4(CCCNC4)CC3)cc2)cc1` (centres unmarked) [Example 1-01], in experiment [1], the “Bleeding time” value came to 31.0 ± 3.6 s. In experiment [2], the pEC50 was over 6.00.
